Reference: patent publication US12528790B2, “Amide derivative having antiviral activity” (Shionogi & Co., Ltd., priority 2020, dated 2026)

What was measured:
[1] = system: RSV A2 strain; assay: In vitro CPE (CytoPathic Effect) inhibition effect evaluation test, RSV type A; type: cell-based; details: human respiratory syncytial virus; inhibitory effect against RSV type A (RSV A2 strain), HEp-2 cells, CPE inhibition; read-out: EC50
How it was run: (§1)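 EC50 is the concentration giving 50% inhibition of virus-induced cytopathic effect, fitted by nonlinear regression from CellTiter-Glo 2.0 viability. Compounds in 3-fold series were co-incubated at 37 °C with HEp-2 cells and RSV: A2 strain for 4 days, B (Wash/18537) for 5 days; uninfected wells served as control.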

[2] = system: RSV B (Wash/18537 strain); assay: In vitro CPE (CytoPathic Effect) inhibition effect evaluation test, RSV type B; type: cell-based; details: human respiratory syncytial virus, inhibitory effect against RSV type B, CPE inhibition; read-out: EC50
How it was run: as §1

Row | Structure (SMILES) | EC50 [1] | EC50 [2]
1 | O=C(NC1(C(=O)O)C2CC3CC(C2)CC1C3)c1cnc(N2CC3(CCCCC3)c3cc(OC4CCN(CC5(F)COC5)CC4)ccc32)nc1C(F)(F)F (stereo not drawn) [Compound I-484] | < 10 nM | 10 to 100 nM
2 | O=C(NC1(C(=O)O)C2CC3CC(C2)CC1C3)c1cnc(N2CC3(CCCCC3)c3cc(OC4CCN(C5CSC5)CC4)ccc32)nc1C(F)(F)F (stereo not drawn) [Compound I-485] | < 10 nM | 10 to 100 nM
3 | O=C(NC1(C(=O)O)C2CC3CC(C2)CC1C3)c1cnc(N2CC3(CCCC3)c3cc(OC4CCC5(CC4)COC5)ccc32)nc1C(F)(F)F (stereo not drawn) [Compound I-488] | < 10 nM | < 10 nM
4 | O=C(NC1(C(=O)O)C2CC3CC(C2)CC1C3)c1cnc(N2CC3(CCOCC3)c3cc(OCCC(F)(F)F)ncc32)nc1C(F)(F)F (stereo not drawn) [Compound I-489] | < 10 nM | < 10 nM
5 | O=C(NC1(C(=O)O)C2CC3CC(C2)CC1C3)c1cnc(N2CC3(CCOCC3)c3cc(C(=O)N4CC(C(F)(F)F)C4)ccc32)nc1C(F)(F)F (stereo not drawn) [Compound I-490] | < 10 nM | < 10 nM
6 | O=C(NC1(C(=O)O)C2CC3CC(C2)CC1C3)c1cnc(N2CC3(CCOCC3)c3cc(C(=O)N4CC(F)(F)C4)ccc32)nc1C(F)(F)F (stereo not drawn) [Compound I-491] | < 10 nM | 10 to 100 nM
7 | CC(=O)N1CC(N2CCC(Oc3ccc4c(c3)C3(CCCCC3)CN4c3ncc(C(=O)NC4(C(=O)O)C5CC6CC(C5)CC4C6)c(C(F)(F)F)n3)CC2)C1 (stereo not drawn) [Compound I-492] | < 10 nM | 10 to 100 nM
8 | O=C(NC1(C(=O)O)C2CC3CC(C2)CC1C3)c1cnc(N2CC3(CCC(F)(F)CC3)c3cc(OC4CCN(CC(F)(F)F)CC4)ccc32)nc1C(F)(F)F (stereo not drawn) [Compound I-493] | < 10 nM | < 10 nM
9 | O=C(NC1(C(=O)O)C2CC3CC(C2)CC1C3)c1cnc(N2CC3(CCCCC3)c3cc(OC4CN(c5ncc(F)cn5)C4)ccc32)nc1C(F)(F)F (stereo not drawn) [Compound I-494] | < 10 nM | < 10 nM
10 | O=C(NC1(C(=O)O)C2CC3CC(C2)CC1C3)c1cnc(N2CC3(CCCCC3)c3cc(OC4CN(CC(F)(F)F)C4)ccc32)nc1C(F)(F)F (stereo not drawn) [Compound I-495] | < 10 nM | < 10 nM
11 | CCC(CC)n1cc(-c2ncc(C(=O)NC3(C(=O)O)C4CC5CC(C4)CC3C5)c(C(F)(F)F)n2)c2ccc(O[C@H]3CC[C@H](N4CC(F)(F)C4)CC3)cc21 (stereo partly drawn) [Compound I-496] | < 10 nM | < 10 nM
12 | O=C(NC1(C(=O)O)C2CC3CC(C2)CC1C3)c1cnc(-c2cn(C3CC3)c3cc(O[C@H]4CC[C@H](N5CC(F)(F)C5)CC4)ccc23)nc1C(F)(F)F (stereo partly drawn) [Compound I-497] | < 10 nM | < 10 nM
13 | O=C(NC1(C(=O)O)C2CC3CC(C2)CC1C3)c1cnc(-c2cn(C3CCC4(CC3)COC4)c3cc(O[C@H]4CC[C@H](N5CC(F)(F)C5)CC4)ccc23)nc1C(F)(F)F (stereo partly drawn) [Compound I-498] | < 10 nM | < 10 nM
14 | O=C(NC1(C(=O)O)C2CC3CC(C2)CC1C3)c1cnc(-c2cn(C3CCOCC3)c3cc(O[C@H]4CC[C@H](N5CC(F)(F)C5)CC4)ccc23)nc1C(F)(F)F (stereo partly drawn) [Compound I-499] | < 10 nM | < 10 nM
15 | O=C(NC1(C(=O)O)C2CC3CC(C2)CC1C3)c1cnc(N2CC3(CCCCC3)c3cc(O[C@H]4CC[C@@H](N5CC(F)(F)C5)CC4)ccc32)nc1C(F)(F)F (stereo partly drawn) [Compound I-500] | < 10 nM | < 10 nM
16 | O=C(NC1(C(=O)O)C2CC3CC(C2)CC1C3)c1cnc(N2CC3(CCCCC3)c3cc(O[C@H]4CC[C@H](n5cncn5)CC4)ccc32)nc1C(F)(F)F (stereo partly drawn) [Compound I-501] | < 10 nM | < 10 nM
17 | O=C(NC1(C(=O)O)C2CC3CC(C2)CC1C3)c1cnc(N2CC3(CCCC3)c3cc(OC4CCN(C5CC(F)(F)C5)CC4)ccc32)nc1C(F)(F)F (stereo not drawn) [Compound I-502] | < 10 nM | 10 to 100 nM
18 | CC(F)(F)c1nc(N2CC3(CCOCC3)c3cc(OC4CCN(c5ncc(F)cn5)CC4)ncc32)ncc1C(=O)NC1(C(=O)O)C2CC3CC(C2)CC1C3 (stereo not drawn) [Compound I-503] | < 10 nM | < 10 nM
